The results in this text go back to patent US12441730B2, “PRMT5 inhibitors” (Merck Sharp & Dohme LLC, priority 2019, dated 2025).

In test [1] the test system is symmetric dimethylation of arginine (SDMA) of PRMT5 substrates in MCF-7 cells. The test can be described thus: PRMT5 Cell Target Engagement (TE) Assay. The note with it: 3 days treatment, SDMA high content imaging. The class given is cell-based. The essentials: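 Readout is single-cell nuclear symmetric-dimethylarginine immunofluorescence (Alexa488), normalized to DMSO-treated cells. Compounds were applied to MCF-7 cells for 3 days at 37 °C, top concentration 10000 nM in 1:3 steps over ten points; curves fitted with 4-parameter robust fit.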

Test [2] deals with T1, Full-length (FL)-PRMT5-MEP50 enzyme complex (Homo sapiens, UniProt O14744).
T1 construct: Full-length (FL)-PRMT5-MEP50 enzyme complex (recombinant proteins from baculovirus-transfected Sf21 cells: FL-PRMT5; MW=73837 kDa and FL-MEP50; MW=38614); made in house; host or cells: baculovirus-transfected Sf21 cells
T1 sequence (O14744 whole entry): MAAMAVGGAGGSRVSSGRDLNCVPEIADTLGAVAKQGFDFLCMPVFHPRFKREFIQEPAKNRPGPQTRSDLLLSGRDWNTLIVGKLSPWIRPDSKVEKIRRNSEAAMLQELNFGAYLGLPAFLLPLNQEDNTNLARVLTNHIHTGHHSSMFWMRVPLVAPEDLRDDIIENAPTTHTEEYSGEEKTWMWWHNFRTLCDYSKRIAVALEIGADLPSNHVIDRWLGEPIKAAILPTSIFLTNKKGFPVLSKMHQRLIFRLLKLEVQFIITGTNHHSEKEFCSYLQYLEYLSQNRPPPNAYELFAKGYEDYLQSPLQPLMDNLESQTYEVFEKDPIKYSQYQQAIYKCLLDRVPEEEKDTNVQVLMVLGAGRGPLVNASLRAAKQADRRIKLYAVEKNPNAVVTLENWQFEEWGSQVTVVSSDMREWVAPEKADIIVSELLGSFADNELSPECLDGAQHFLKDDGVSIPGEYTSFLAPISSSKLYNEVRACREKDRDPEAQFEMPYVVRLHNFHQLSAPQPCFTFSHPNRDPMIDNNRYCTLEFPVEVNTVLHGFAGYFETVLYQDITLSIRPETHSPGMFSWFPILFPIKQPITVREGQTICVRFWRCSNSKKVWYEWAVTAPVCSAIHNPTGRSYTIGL
T1 sequence (Q9BQA1 whole entry partner): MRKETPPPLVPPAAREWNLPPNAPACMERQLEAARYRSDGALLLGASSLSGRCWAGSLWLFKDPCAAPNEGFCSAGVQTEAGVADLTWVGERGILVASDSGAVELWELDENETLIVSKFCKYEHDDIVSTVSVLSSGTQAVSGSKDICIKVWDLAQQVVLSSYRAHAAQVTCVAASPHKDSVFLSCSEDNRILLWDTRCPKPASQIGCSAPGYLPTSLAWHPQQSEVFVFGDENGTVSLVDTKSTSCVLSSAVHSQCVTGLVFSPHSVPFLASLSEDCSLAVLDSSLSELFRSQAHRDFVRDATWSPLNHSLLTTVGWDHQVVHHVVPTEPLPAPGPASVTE
The test can be described thus: PRMT5-MEP50 Enzyme Methylation Assay (Version A). Format: biochemical. The method, boiled down:
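Compound was pre-incubated with enzyme for 60 min, then reacted 150 min at 37° C. at final 1.0 nM PRMT5-MEP50, 15 μM SAM and 75 nM biotinylated H4R3(Me1) peptide, in 50 mM Bicine pH 8.0 with 1% DMSO. SAMDI mass-spectrometric readout of Me1→Me2 conversion. EC50 from 4- or 7-parameter regression.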

[3] abbreviates: second value of 7 parameter biphasic fit, read-out: Enzyme Methylation Assay Version A (EC50 2).
Setting [4] is: single EC50 = 4 parameter single site sigmoidal fit, EC50 1 = first value of 7 parameter biphasic fit, read-out: Enzyme Methylation Assay Version A (EC50 or EC50 1).

A word on the pEC50: it is the EC50 on a negative log10 scale, so that one unit is a factor of ten.

pEC50: −log10 of the molar value. Where two headings read alike, the source gives them in different places. Where only a bound is given, the exact number is not on record here.

For `CC1CC1c1cnc2nc(C(=O)N3CC[C@]4(Cc5ccccc5CN4)[C@H](O)C3)cn2c1` (single isomer, unassigned) [Example 76], the pEC50 in test [1] is 8.40; in test [2] (setting [3]), 7.14; in test [2] (setting [4]), 9.01.

Regarding `CC1CC1c1cnc2nc(C(=O)N3CC[C@]4(Cc5ccccc5CN4)[C@H](O)C3)cn2c1` (single isomer, unassigned) [Example 74], the pEC50 in test [1] is 8.08; in test [2] (setting [4]), 7.86.

As to `COc1nc2nc(C(=O)N3CC[C@]4(Cc5ccccc5CN4)[C@H](O)C3)cn2cc1Br` (single isomer, unassigned) [Example 248], the pEC50 in test [1] (Homo sapiens, MCF7, 72 h) was 8.03; in test [2] (setting [3]) it was 6.82; in test [2] (setting [4]), 9.25.

With `O=C(c1ccc(-n2cnnn2)cn1)N1CC[C@]2(Cc3ccccc3CN2)[C@H](O)C1` [Example 192, [(3R,3′R)-3′-hydroxy-1,4-dihydro-1′H,2H-spiro[isoquinoline-3,4′-piperidin]-1′-yl][5-(1H-tetrazol-1-yl)-2-pyridinyl]methanone], the pEC50 in test [1] (Homo sapiens, MCF7, 72 h) is ≤ 5.00; in test [2] (setting [3]), 4.46; in test [2] (setting [4]) it was 6.95.

Regarding `O=C(c1cn2c(n1)C(C1CCOC1)CC(C(F)(F)F)C2)N1CC[C@]2(Cc3ccccc3CN2)[C@H](O)C1` (single isomer, unassigned) [Example 161, ((3R,3′R)-3′-hydroxy-1,4-dihydro-2H-spiro[isoquinoline-3,4′-piperidin]-1′-yl)((6S,8S or 6R,8R)-8-((S or R)-tetrahydrofuran-3-yl)-6-(trifluoromethyl)-5,6,7,8-tetrahydroimidazo[1,2-a]pyridin-2-yl)methanone], the pEC50 in test [1] is 6.43; in test [2] (setting [3]), 5.04; in test [2] (setting [4]), 8.23.

Take `O=C(c1cn2cc(Cl)cc(Br)c2n1)N1CC[C@]2(Cc3ccccc3CN2)[C@H](O)C1` [Example 210, (8-bromo-6-chloroimidazo[1,2-a]pyridin-2-yl)[(3R,3′R)-3′-hydroxy-1,4-dihydro-1′H,2H-spiro[isoquinoline-3,4′-piperidin]-1′-yl]methanone]: the pEC50 is 7.91 in test [1] (Homo sapiens, MCF7, 72 h); 7.26 in test [2] (setting [3]); 9.68 in test [2] (setting [4]).

`O=C(c1ccc2c(c1)NCCN(CC(F)(F)F)C2=O)N1CC[C@]2(Cc3ccccc3CN2)[C@H](O)C1` [Example 170, 8-{[(3R,3′R)-3′-hydroxy-1,4-dihydro-1′H,2H-spiro[isoquinoline-3,4′-piperidin]-1′-yl]carbonyl}-4-(2,2,2-trifluoroethyl)-1,2,3,4-tetrahydro-5H-1,4-benzodiazepin-5-one]: the pEC50 in test [1] (Homo sapiens, MCF7, 72 h) is 7.72; in test [2] (setting [3]) it was 5.75; in test [2] (setting [4]), 8.59.

As for `CC(C)(O)c1cc(Br)cn2cc(C(=O)N3CCC4(Cc5ccccc5CN4)C(O)C3)nc12` (stereo not drawn) [Example 48, A diastereomer of [6-bromo-8-(2-hydroxy-2-propanyl)imidazo[1,2-a]pyridin-2-yl](3′-hydroxy-1,4-dihydro-1′H,2H-spiro[isoquinoline-3,4′-piperidin]-1′-yl)methanone], the pEC50 in test [1] (Homo sapiens, MCF7, 72 h) is 6.61; in test [2] (setting [3]) it was 5.53; in test [2] (setting [4]), 8.31.

Take `O=C(c1cn2cc(Br)nc(OCC3CCCO3)c2n1)N1CC[C@]2(Cc3ccccc3CN2)[C@H](O)C1` (single isomer, unassigned) [Example 101, (6-bromo-8-(((S or R)-tetrahydrofuran-2-yl)methoxy)imidazo[1,2-a]pyrazin-2-yl)((3R,3′R)-3′-hydroxy-1,4-dihydro-2H-spiro[isoquinoline-3,4′-piperidin]-1′-yl)methanone]: the pEC50 in test [1] is 8.15; in test [2] (setting [3]) it was 7.25; in test [2] (setting [4]), 9.53.

On to `Cc1c(Br)cnc2ncc(C(=O)N3CC[C@]4(Cc5ccccc5CN4)[C@H](O)C3)n12` [Example 141, (6-bromo-5-methylimidazo[1,2-a]pyrimidin-3-yl)[(3R,3′R)-3′-hydroxy-1,4-dihydro-1′H,2H-spiro[isoquinoline-3,4′-piperidin]-1′-yl]methanone], for which the pEC50 was 5.36 in test [1] (Homo sapiens, MCF7, 72 h); 5.43 in test [2] (setting [3]); 6.99 in test [2] (setting [4]).

On to `Cc1nc(Br)cn2cc(C(=O)N3CC[C@]4(Cc5ccccc5CN4)[C@H](O)C3)nc12` [Example 65, (6-bromo-8-methylimidazo[1,2-a]pyrazin-2-yl)[(3R,3′R)-3′-hydroxy-1,4-dihydro-1′H,2H-spiro[isoquinoline-3,4′-piperidin]-1′-yl]methanone], for which the pEC50 was 7.00 in test [1] (Homo sapiens, MCF7, 72 h); 5.86 in test [2] (setting [3]); 8.92 in test [2] (setting [4]).

As for `CCC1Oc2ccc(C(=O)N3CC[C@]4(Cc5ccccc5CN4)[C@H](O)C3)cc2NC1=O` (single isomer, unassigned) [Example 104, (2R or 2S)-2-ethyl-6-((3R,3′R)-3′-hydroxy-1,4-dihydro-2H-spiro[isoquinoline-3,4′-piperidine]-1′-carbonyl)-2H-benzo[b][1,4]oxazin-3(4H)-one], the pEC50 in test [1] was 7.08; in test [2] (setting [3]) it was 5.85; in test [2] (setting [4]), 8.84.

As for `O=C1Nc2cc(C(=O)N3CC[C@]4(Cc5ccccc5CN4)[C@H](O)C3)ccc2OC1C1CC1` (single isomer, unassigned) [Example 107, (2S or 2R)-2-cyclopropyl-6-((3R,3′R)-3′-hydroxy-1,4-dihydro-2H-spiro[isoquinoline-3,4′-piperidine]-1′-carbonyl)-2H-benzo[b][1,4]oxazin-3(4H)-one], the pEC50 is 8.18 in test [1] and 9.56 in test [2] (setting [4]).

For `O=C(c1ccc2nccn2n1)N1CC[C@]2(Cc3ccccc3CN2)[C@H](O)C1` [Example 188, ((3R,3′R)-3′-hydroxy-1,4-dihydro-2H-spiro[isoquinoline-3,4′-piperidin]-1′-yl)(imidazo[1,2-b]pyridazin-6-yl)methanone], the pEC50 in test [1] (Homo sapiens, MCF7, 72 h) was 5.48; in test [2] (setting [3]) it was 4.13; in test [2] (setting [4]), 6.84.

For `O=C(c1cn2cc(C(F)(F)F)cc(CO)c2n1)N1CC[C@]2(Cc3ccccc3CN2)[C@H](O)C1` [Example 29, ((3R,3’R)-3′-hydroxy-1,4-dihydro-1′H,2H-spiro[isoquinoline-3,4′-piperidin]-1′-yl)[8-(hydroxymethyl)-6-(trifluoromethyl)imidazo[1,2-a]pyridin-2-yl]methanone], the pEC50 in test [1] (Homo sapiens, MCF7, 72 h) was 7.73; in test [2] (setting [3]) it was 6.19; in test [2] (setting [4]), 9.37.

On to `N#Cc1cc(Cl)c2nc(C(=O)N3CC[C@]4(Cc5ccccc5CN4)[C@H](O)C3)cn2c1` [Example 215, 8-chloro-2-{[(3R,3′R)-3′-hydroxy-1,4-dihydro-1′H,2H-spiro[isoquinoline-3,4′-piperidin]-1′-yl]carbonyl}imidazo[1,2-a]pyridine-6-carbonitrile], for which the pEC50 in test [1] (Homo sapiens, MCF7, 72 h) is 6.91; in test [2] (setting [4]), 7.25.

Consider `COc1cc2nc(C(=O)N3CC[C@]4(Cc5ccccc5CN4)[C@H](O)C3)cn2cc1Br` [Example 125], for which the pEC50 in test [1] (Homo sapiens, MCF7, 72 h) is 7.86; in test [2] (setting [3]) it was 6.53; in test [2] (setting [4]), 9.29.

Consider `CO[C@H](C)c1cc(N2CCC(n3ccnc3)C2)cn2cc(C(=O)N3CC[C@]4(Cc5ccccc5CN4)[C@H](O)C3)nc12` (stereo partly drawn) [Example 230, [(3R,3′R)-3′-hydroxy-1,4-dihydro-1′H,2H-spiro[isoquinoline-3,4′-piperidin]-1′-yl]{6-[3-(1H-imidazol-1-yl)-1-pyrrolidinyl]-8-[(1R)-1-methoxyethyl]imidazo[1,2-a]pyridin-2-yl}methanone], for which the pEC50 was 6.90 in test [1] (Homo sapiens, MCF7, 72 h) and 8.27 in test [2] (setting [4]).

Take `Cc1cc(C(F)(F)F)cn2cc(C(=O)N3CC[C@]4(Cc5ccccc5CN4)[C@H](O)C3)nc12` [Example 35, ((3R,3’R)-3′-hydroxy-1,4-dihydro-2H-spiro[isoquinoline-3,4′-piperidin]-1′-yl)(8-methyl-6-(trifluoromethyl)imidazo[1,2-a]pyridin-2-yl)methanone]: the pEC50 in test [1] (Homo sapiens, MCF7, 72 h) was 8.25; in test [2] (setting [3]), 6.61; in test [2] (setting [4]), 9.12.

Take `O=C(c1cn2cc(Br)cc(N3CCCC3=O)c2n1)N1CC[C@]2(Cc3ccccc3CN2)[C@H](O)C1` [Example 14, 1-(6-bromo-2-((3R3’R)-3′-hydroxy-1,4-dihydro-2H-spiro[isoquinoline-3,4′-piperidine]-1′-carbonyl)imidazo[1,2-a]pyridin-8-yl)pyrrolidin-2-one]: the pEC50 in test [1] (Homo sapiens, MCF7, 72 h) is 6.26; in test [2] (setting [3]), 4.24; in test [2] (setting [4]) it was 7.00.

With `O=C(c1cc2ncc(Br)cn2n1)N1CC[C@]2(Cc3ccccc3CN2)[C@H](O)C1` [Example 17, (6-bromopyrazolo[1,5-a]pyrimidin-2-yl)((3R,3’R)-3′-hydroxy-1,4-dihydro-1′H,2H-spiro[isoquinoline-3,4′-piperidin]-1′-yl)methanone], the pEC50 was 7.85 in test [1] (Homo sapiens, MCF7, 72 h); 6.10 in test [2] (setting [3]); 8.82 in test [2] (setting [4]).

Take `O=C(c1cn2cc(Cl)cc(Cl)c2n1)N1CC[C@]2(Cc3ccccc3CN2)[C@H](O)C1` [Example 214, (6,8-dichloroimidazo[1,2-a]pyridin-2-yl)[(3R,3′R)-3′-hydroxy-1,4-dihydro-1′H,2H-spiro[isoquinoline-3,4′-piperidin]-1′-yl]methanone]: the pEC50 in test [1] (Homo sapiens, MCF7, 72 h) was 8.05; in test [2] (setting [3]), 7.32; in test [2] (setting [4]), 8.95.
